Experiments:
[1] = system: endogenous CK1 / CK1 sensor in HEK293T cells; assay: CK1 FRET biosensor, microplate reader FRET/CFP ratio; type: cell-based, human; conditions: HEK293T, CK1 sensor; D4476 0.4 or 2 µM in Fig. 1F-H, added 2-4 h prior to analysis; n=3
Description: HEK293T cells were seeded at a density of 20,000 cells/well on 96-well black microplates (PS, μClear, clear bottom, chimney well, Greiner No. 655090). Transfection was performed as described above. Unless indicated otherwise, the respective cell populations were transfected with 50-100 ng CK1 FRET biosensor, 100 ng regulator (i.e. N-Flag DDX3X) and 1-10 ng kinase (i.e. N-Flag CK1ε). Either empty pCS2 N-Flag vector or luciferase were used to transfect the same amount of DNA in every well. Generally, the different samples were run in triplicate for each individual experiment. Owing to the varying values for the FRET/CFP ratios based on transfection efficiency, cell density and the time point of analysis, we always set the FRET/CFP ratio of cells only transfected with the CK1 sensor to 1 in order to compare individual experiments. Importantly, the individual figures with the CK1 sensor represent only experiments performed on the same 96-well plate with the same cell density, transfection efficiency and time point.
Where applicable, the small-molecule CK1 inhibitor D4476 (BioVision) was added to the cells 2-4 h prior to the analysis. For each triplicate the respective volume of D4476 (in DMSO) was added together with 1 μl Fugene HD (Promega) to 60 μl serum-free medium. The solution was mixed, incubated for 15 min and added to the cells. […] In the corresponding controls an equal amount of DMSO instead of the inhibitor was added to the medium. Analysis was performed 48-60 h after transfection on an Infinite M1000 PRO microplate reader (Tecan) by exciting CFP with a wavelength of 433 nm and measuring the resulting emission at 460-600 nm in 2 nm increments. Fluorometric spectra were background subtracted with spectra recorded from wells with non-transfected cells. Resulting FRET/CFP ratios were calculated by dividing the intensity values at the respective peaks (478 nm for CFP, 528 nm for YFP) and analyzed essentially as described ([Fritz et al., 2013]). Where indicated, CK1δ/ε-derived peptides were transfected into cells using Metafectene (Biontex) 1 hour before measurements.

DDX3X = assay: ATPase assay of DDX3X; type: biochemical, human; conditions: CK1ε pre-incubated with D4476; dsRNA-stimulated
Description: For the ATPase assay, Flag-tagged DDX3X full-length constructs were expressed in HEK293T cells. After purifying and eluting DDX3X from the beads, an aliquot of the eluates was resolved by SDS-PAGE in order to monitor the different DDX3X levels via western blotting and ImageJ. Based on this comparison, similar amounts of full-length DDX3X protein were used. Approximately 100 ng Flag-DDX3X protein and 10 ng His-CK1ε were used in a 60 μl reaction mix (reaction buffer: 20 mM Tris-HCl, pH 7.4, 200 mM NaCl, 0.5 mM DTT, 1 mM MgCl2, 1 mM ATP) with dsRNA (17 nM, 34 nM, 68 nM); the reaction was carried out at 37°C for 40 min. To phosphorylate DDX3X, 500 ng His-CK1εΔC or His-CK1εΔC^K38R were added in kinase buffer before eluting the DDX3X protein from the Sepharose magnetic Flag beads (Sigma). Incubation was performed at 37°C for 30 min. Then, beads were washed with 50 mM Tris-HCl, pH 7.5 and 500 mM NaCl before elution with Flag peptide. Termination of the helicase reaction was done with 10 μl of 50% TCA solution added to each reaction followed by centrifugation at 3000 g for 5 min at 4°C. Reaction mix was mixed with coloring solution (35 mM ammonium molybdate, 10 mM zinc acetate, 10% ascorbic acid, pH 5) in a 96-well plate before analysis using a spectrometer (wavelength 700 nm).

[2] = reason given for adding Fugene HD; ref Rena et al., 2004; cited from earlier work
Description: Where applicable, the small-molecule CK1 inhibitor D4476 (BioVision) was added to the cells 2-4 h prior to the analysis. For each triplicate the respective volume of D4476 (in DMSO) was added together with 1 μl Fugene HD (Promega) to 60 μl serum-free medium. The solution was mixed, incubated for 15 min and added to the cells. […] In the corresponding control ...

## NC(=O)c1ccc(-c2nc(-c3ccc4c(c3)OCCO4)c(-c3ccccn3)[nH]2)cc1 [D4476, reference compound]
[1]
  effect of CK1 inhibitor on FRET/CFP ratio of CK1 sensor: reduced as a result of the inhibitor treatment
DDX3X
  effect of CK1 inhibitor on CK1ε-mediated inhibition of DDX3X ATPase activity: prevented inhibition of the ATPase activity of DDX3X
[2]
  cell permeability: poor cell permeability
